According to patent US7223788B2, “Substituted N-aryl heterocycles, process for their preparation and their use as medicaments” (Sanofi-Aventis Deutschland GmbH, priority 2003, dated 2007):

Tested on: female NMRI mice
Test: Anorectic effect: reduction in cumulative milk consumption after oral administration (gavage) to fasted mice
Type: in vivo
Conditions: oral dose 30 mg/kg by gavage, after withdrawal of food for 17 hours, condensed milk consumption over 7 hours, compared with vehicle-treated control
Experimental: The anorectic effect was tested on female NMRI mice. After withdrawal of food for 17 hours, the test product was administered by gavage. The animals were housed singly with free access to drinking water and were offered condensed milk 30 minutes after administration of the product. The condensed milk consumption was determined every half hour for 7 hours, and the general wellbeing of the animals was observed. The measured milk consumption was compared with the vehicle-treated control animals.

SMILES | Reduction in the cumulative milk consumption as % of the control [%]
CC(=O)N(C)C1CCN(c2ccc(NC(=O)N3CCC(c4ccc(Cl)cc4)CC3)cc2)C1 (centres unmarked) [Example 13, 4-(4-Chlorophenyl)piperidine-1-carboxylic acid {4-[3-(acetylmethylamino)-pyrrolidin-1-yl]phenyl}amide] | 64
CC(=O)N(C)[C@@H]1CCN(c2ccc(NC(=O)Nc3ccc(Oc4ccccc4)cc3)cc2)C1 [Example 4, (R)-N-Methyl-N-(1-{4-[3-(4-phenoxyphenyl)ureido]phenyl}pyrrolidin-3-yl)acetamide] | 50
